Source: publication PMC5847526, “Inhibition of neuronal FLT3 receptor tyrosine kinase alleviates peripheral neuropathic pain in mice” (Nature Communications, 2018)

Columns and labels:
PRLR-JAK2 = PRLR-JAK2 (Homo sapiens, UniProt P16471); assay: cell-based; set-up: PathHunter eXpress functional assay (DiscoverX tkMAX), inhibition of reference ligand response; conditions: read-out: % Inhibition of reference binding (Table 3)
PKA = molecular target: T1, PKA (Homo sapiens, UniProt P17612); assay: biochemical; set-up: ExpresS Diversity kinase profile (Eurofins Cerep P10), per cent inhibition; conditions: read-out: Inhibition of reference binding (Table 4)
T1 construct: gene PRKACA

Fms/CSFR kinase = molecular target: T2, Fms/CSFR kinase (Homo sapiens, UniProt P07333); assay: biochemical; set-up: ExpresS Diversity kinase profile (Eurofins Cerep P10), per cent inhibition; conditions: read-out: Inhibition of reference binding (Table 4)
T2 construct: gene CSF1R

Pim2 kinase = Pim2 kinase (Homo sapiens, UniProt Q9P1W9); assay: biochemical; set-up: ExpresS Diversity kinase profile (Eurofins Cerep P10), per cent inhibition; conditions: read-out: Inhibition of reference binding (Table 4)
MNK2 = molecular target: T3, MNK2 (Homo sapiens, UniProt Q9HBH9); assay: biochemical; set-up: ExpresS Diversity kinase profile (Eurofins Cerep P10), per cent inhibition; conditions: read-out: Inhibition of reference binding (Table 4)
T3 construct: gene MKNK2

PKCbeta 2 = molecular target: T4, PKCbeta 2 (Homo sapiens, UniProt P05771); assay: biochemical; set-up: ExpresS Diversity kinase profile (Eurofins Cerep P10), per cent inhibition; conditions: read-out: Inhibition of reference binding (Table 4)
T4 construct: gene PRKCB; isoform beta 2

PDK1 = molecular target: T5, PDK1 (Homo sapiens, UniProt O15530); assay: biochemical; set-up: ExpresS Diversity kinase profile (Eurofins Cerep P10), per cent inhibition; conditions: read-out: Inhibition of reference binding (Table 4)
T5 construct: gene PDPK1
T5 sequence (O15530 whole entry): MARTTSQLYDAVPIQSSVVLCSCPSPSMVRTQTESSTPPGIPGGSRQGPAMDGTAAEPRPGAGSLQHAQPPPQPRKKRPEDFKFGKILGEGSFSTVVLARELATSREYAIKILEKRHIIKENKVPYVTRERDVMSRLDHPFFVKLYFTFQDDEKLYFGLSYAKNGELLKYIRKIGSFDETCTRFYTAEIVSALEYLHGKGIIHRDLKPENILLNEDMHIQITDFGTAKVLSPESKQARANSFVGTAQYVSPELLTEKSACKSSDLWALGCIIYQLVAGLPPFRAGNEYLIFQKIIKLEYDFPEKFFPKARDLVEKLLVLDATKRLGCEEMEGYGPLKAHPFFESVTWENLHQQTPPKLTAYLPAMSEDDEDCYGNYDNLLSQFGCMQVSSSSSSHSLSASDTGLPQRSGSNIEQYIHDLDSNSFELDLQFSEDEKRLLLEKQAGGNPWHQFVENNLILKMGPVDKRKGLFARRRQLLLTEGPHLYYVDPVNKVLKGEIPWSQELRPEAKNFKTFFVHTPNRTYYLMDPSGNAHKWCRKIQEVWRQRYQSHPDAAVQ

PLK1 = PLK1 (Homo sapiens, UniProt P53350); assay: biochemical; set-up: ExpresS Diversity kinase profile (Eurofins Cerep P10), per cent inhibition; conditions: read-out: Inhibition of reference binding (Table 4)
Sequence of PLK1 (P53350 whole entry): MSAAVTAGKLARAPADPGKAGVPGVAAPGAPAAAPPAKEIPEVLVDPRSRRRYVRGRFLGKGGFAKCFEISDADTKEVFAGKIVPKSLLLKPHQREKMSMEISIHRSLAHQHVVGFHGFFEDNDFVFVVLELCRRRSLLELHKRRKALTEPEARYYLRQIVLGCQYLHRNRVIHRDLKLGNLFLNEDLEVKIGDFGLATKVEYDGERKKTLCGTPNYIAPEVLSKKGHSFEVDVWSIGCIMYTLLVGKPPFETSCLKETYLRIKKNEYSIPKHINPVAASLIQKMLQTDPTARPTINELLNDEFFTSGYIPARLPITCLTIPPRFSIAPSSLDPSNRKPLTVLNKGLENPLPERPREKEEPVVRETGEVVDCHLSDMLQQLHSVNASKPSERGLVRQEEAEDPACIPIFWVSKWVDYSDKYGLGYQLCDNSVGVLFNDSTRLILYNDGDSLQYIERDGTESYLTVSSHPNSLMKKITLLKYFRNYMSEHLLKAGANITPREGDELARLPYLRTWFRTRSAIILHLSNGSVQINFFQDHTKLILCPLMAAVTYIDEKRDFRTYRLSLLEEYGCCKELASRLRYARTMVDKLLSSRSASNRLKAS

PAK2 = PAK2 (Homo sapiens, UniProt Q13177); assay: biochemical; set-up: ExpresS Diversity kinase profile (Eurofins Cerep P10), per cent inhibition; conditions: read-out: Inhibition of reference binding (Table 4)
EphA3 kinase = EphA3 kinase (Homo sapiens, UniProt P29320); assay: biochemical; set-up: ExpresS Diversity kinase profile (Eurofins Cerep P10), per cent inhibition; conditions: read-out: Inhibition of reference binding (Table 4)
Akt1/PKBα = Akt1/PKBα (Homo sapiens, UniProt P31749); assay: biochemical; set-up: ExpresS Diversity kinase profile (Eurofins Cerep P10), per cent inhibition; conditions: read-out: Inhibition of reference binding (Table 4)
Sequence of Akt1/PKBα (P31749 whole entry): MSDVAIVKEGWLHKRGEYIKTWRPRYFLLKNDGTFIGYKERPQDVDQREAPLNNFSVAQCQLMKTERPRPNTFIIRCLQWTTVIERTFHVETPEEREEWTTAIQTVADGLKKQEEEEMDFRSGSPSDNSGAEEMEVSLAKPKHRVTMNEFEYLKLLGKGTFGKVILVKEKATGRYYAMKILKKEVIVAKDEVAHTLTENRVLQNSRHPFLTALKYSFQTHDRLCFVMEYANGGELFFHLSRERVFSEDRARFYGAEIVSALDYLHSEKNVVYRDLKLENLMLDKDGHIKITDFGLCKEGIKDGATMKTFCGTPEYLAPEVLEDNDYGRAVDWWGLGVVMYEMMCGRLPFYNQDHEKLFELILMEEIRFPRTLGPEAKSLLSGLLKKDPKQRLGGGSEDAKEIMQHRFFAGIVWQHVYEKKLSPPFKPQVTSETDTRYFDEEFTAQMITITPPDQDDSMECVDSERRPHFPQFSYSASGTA

KDR = KDR (Homo sapiens, UniProt P35968); assay: biochemical; set-up: ExpresS Diversity kinase profile (Eurofins Cerep P10), per cent inhibition; conditions: read-out: Inhibition of reference binding (Table 4)
Sequence of KDR (P35968 whole entry): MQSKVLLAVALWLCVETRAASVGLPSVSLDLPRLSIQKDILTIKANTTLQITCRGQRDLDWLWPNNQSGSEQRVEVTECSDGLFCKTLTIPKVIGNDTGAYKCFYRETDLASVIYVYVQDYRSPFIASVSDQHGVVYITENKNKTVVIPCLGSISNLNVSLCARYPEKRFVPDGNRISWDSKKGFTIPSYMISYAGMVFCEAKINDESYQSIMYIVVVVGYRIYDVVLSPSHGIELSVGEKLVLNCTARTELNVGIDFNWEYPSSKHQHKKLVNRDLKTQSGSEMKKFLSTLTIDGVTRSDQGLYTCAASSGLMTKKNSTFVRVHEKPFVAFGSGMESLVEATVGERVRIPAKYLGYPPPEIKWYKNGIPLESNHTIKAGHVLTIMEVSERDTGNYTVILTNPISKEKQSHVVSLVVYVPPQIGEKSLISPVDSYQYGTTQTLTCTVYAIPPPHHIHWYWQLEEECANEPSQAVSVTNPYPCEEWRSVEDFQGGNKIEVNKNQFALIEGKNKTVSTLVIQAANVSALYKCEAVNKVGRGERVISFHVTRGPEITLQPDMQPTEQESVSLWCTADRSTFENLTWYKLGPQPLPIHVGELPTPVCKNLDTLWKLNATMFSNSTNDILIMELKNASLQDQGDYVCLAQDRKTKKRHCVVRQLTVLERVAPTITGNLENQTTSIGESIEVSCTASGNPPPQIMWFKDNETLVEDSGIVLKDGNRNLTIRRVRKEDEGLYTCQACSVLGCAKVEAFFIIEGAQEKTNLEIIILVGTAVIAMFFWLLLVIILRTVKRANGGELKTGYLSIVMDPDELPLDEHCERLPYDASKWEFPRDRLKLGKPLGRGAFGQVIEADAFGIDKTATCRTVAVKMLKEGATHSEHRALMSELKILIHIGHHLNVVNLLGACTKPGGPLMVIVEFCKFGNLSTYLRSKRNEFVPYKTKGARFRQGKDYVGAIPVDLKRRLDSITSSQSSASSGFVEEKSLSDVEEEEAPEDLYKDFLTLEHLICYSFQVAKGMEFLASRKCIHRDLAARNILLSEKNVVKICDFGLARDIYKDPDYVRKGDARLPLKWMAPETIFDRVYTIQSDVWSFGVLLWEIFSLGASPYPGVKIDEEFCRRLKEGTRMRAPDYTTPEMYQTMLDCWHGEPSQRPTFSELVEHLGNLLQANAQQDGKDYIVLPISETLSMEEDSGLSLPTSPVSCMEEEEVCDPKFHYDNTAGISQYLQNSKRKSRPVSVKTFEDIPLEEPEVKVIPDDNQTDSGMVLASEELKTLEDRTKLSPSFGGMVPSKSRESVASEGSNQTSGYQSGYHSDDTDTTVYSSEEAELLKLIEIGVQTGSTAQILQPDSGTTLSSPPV

GSK3β = molecular target: T6, GSK3β (Homo sapiens, UniProt P49841); assay: biochemical; set-up: ExpresS Diversity kinase profile (Eurofins Cerep P10), per cent inhibition; conditions: read-out: Inhibition of reference binding (Table 4)
T6 construct: gene GSK3B

TRKA = molecular target: T7, TRKA (Homo sapiens, UniProt P04629); assay: biochemical; set-up: ExpresS Diversity kinase profile (Eurofins Cerep P10), per cent inhibition; conditions: read-out: Inhibition of reference binding (Table 4)
T7 construct: gene NTRK1

NEK2 = NEK2 (Homo sapiens, UniProt P51955); assay: biochemical; set-up: ExpresS Diversity kinase profile (Eurofins Cerep P10), per cent inhibition; conditions: read-out: Inhibition of reference binding (Table 4)
EGFR kinase = EGFR kinase (Homo sapiens, UniProt P00533); assay: biochemical; set-up: ExpresS Diversity kinase profile (Eurofins Cerep P10), per cent inhibition; conditions: read-out: Inhibition of reference binding (Table 4)
PDGFRα = molecular target: T8, PDGFRα (Homo sapiens, UniProt P16234); assay: biochemical; set-up: ExpresS Diversity kinase profile (Eurofins Cerep P10), per cent inhibition; conditions: read-out: Inhibition of reference binding (Table 4)
T8 construct: gene PDGFRA

JNK1 = molecular target: T9, JNK1 (Homo sapiens, UniProt P45983); assay: biochemical; set-up: ExpresS Diversity kinase profile (Eurofins Cerep P10), per cent inhibition; conditions: read-out: Inhibition of reference binding (Table 4)
T9 construct: gene MAPK8
T9 sequence (P45983 whole entry): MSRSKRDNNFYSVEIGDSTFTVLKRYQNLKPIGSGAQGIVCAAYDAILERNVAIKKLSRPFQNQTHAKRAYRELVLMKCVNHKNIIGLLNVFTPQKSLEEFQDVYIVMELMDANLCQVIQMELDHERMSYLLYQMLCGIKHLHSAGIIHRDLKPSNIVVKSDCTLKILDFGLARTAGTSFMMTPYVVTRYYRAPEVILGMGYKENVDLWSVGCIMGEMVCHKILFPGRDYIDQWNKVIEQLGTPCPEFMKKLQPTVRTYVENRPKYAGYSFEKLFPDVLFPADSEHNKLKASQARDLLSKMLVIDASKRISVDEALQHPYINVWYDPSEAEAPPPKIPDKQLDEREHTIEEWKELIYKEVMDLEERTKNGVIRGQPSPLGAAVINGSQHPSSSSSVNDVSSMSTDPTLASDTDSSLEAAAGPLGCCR

CHK1 = molecular target: T10, CHK1 (Homo sapiens, UniProt O14757); assay: biochemical; set-up: ExpresS Diversity kinase profile (Eurofins Cerep P10), per cent inhibition; conditions: read-out: Inhibition of reference binding (Table 4)
T10 construct: gene CHEK1

ROCK1 = ROCK1 (Homo sapiens, UniProt Q13464); assay: biochemical; set-up: ExpresS Diversity kinase profile (Eurofins Cerep P10), per cent inhibition; conditions: read-out: Inhibition of reference binding (Table 4)
Sequence of ROCK1 (Q13464 whole entry): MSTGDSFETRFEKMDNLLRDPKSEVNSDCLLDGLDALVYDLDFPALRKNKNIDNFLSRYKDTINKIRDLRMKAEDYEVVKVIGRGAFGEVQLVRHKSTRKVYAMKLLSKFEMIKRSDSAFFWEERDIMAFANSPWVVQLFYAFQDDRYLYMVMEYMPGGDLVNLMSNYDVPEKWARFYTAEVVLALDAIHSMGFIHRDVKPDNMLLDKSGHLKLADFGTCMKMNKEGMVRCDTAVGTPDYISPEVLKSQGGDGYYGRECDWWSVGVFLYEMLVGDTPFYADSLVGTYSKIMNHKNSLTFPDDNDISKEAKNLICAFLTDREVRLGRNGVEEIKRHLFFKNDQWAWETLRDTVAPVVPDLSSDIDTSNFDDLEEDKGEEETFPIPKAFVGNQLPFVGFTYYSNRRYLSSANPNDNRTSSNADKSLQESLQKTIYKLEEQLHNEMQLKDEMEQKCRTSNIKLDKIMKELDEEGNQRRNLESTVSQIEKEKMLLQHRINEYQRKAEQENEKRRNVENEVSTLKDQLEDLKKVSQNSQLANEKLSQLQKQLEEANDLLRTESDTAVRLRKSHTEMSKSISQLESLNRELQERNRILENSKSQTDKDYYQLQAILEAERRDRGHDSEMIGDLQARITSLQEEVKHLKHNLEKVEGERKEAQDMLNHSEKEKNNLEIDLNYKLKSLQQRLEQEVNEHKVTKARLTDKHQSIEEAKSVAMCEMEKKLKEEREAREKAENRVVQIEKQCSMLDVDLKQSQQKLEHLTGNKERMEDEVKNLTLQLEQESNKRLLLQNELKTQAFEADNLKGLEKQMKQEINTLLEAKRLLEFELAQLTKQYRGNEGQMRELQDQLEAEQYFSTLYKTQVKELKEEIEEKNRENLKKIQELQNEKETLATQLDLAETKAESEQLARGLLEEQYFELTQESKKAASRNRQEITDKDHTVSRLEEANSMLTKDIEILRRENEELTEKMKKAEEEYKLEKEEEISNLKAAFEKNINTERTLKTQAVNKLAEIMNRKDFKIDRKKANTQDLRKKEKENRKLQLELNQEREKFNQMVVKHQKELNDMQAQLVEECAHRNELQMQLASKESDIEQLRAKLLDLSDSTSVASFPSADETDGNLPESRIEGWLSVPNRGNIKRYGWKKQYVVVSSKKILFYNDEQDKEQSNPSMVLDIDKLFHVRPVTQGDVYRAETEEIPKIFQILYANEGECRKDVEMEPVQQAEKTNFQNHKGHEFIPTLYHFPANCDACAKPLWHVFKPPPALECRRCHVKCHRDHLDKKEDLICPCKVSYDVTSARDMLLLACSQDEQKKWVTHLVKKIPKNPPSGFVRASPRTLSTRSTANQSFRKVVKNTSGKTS

c-KIT = c-KIT (Homo sapiens, UniProt P10721); assay: biochemical; set-up: ExpresS Diversity kinase profile (Eurofins Cerep P10), per cent inhibition; conditions: read-out: Inhibition of reference binding (Table 4)
JAK3 = JAK3 (Homo sapiens, UniProt P52333); assay: biochemical; set-up: ExpresS Diversity kinase profile (Eurofins Cerep P10), per cent inhibition; conditions: read-out: Inhibition of reference binding (Table 4)
AurA/Aur2 kinase = molecular target: T11, AurA/Aur2 kinase (Homo sapiens, UniProt O14965); assay: biochemical; set-up: ExpresS Diversity kinase profile (Eurofins Cerep P10), per cent inhibition; conditions: read-out: Inhibition of reference binding (Table 4)
T11 construct: gene AURKA

TAOK2 = TAOK2 (Homo sapiens, UniProt Q9UL54); assay: biochemical; set-up: ExpresS Diversity kinase profile (Eurofins Cerep P10), per cent inhibition; conditions: read-out: Inhibition of reference binding (Table 4)
RAF-1 kinase = molecular target: T12, RAF-1 kinase (Homo sapiens, UniProt P04049); assay: biochemical; set-up: ExpresS Diversity kinase profile (Eurofins Cerep P10), per cent inhibition; conditions: read-out: Inhibition of reference binding (Table 4)
T12 construct: gene RAF1

Src kinase = Src kinase (Homo sapiens, UniProt P12931); assay: biochemical; set-up: ExpresS Diversity kinase profile (Eurofins Cerep P10), per cent inhibition; conditions: read-out: Inhibition of reference binding (Table 4)
Lck kinase = Lck kinase (Homo sapiens, UniProt P06239); assay: biochemical; set-up: ExpresS Diversity kinase profile (Eurofins Cerep P10), per cent inhibition; conditions: read-out: Inhibition of reference binding (Table 4)

inhibition at 10 µM (PRLR-JAK2): 1.9% | inhibition at 10 µM (PKA): 7% | inhibition at 10 µM (Fms/CSFR kinase): 1% | inhibition at 10 µM (Pim2 kinase): 19% | inhibition at 10 µM (MNK2): -7% | inhibition at 10 µM (PKCbeta 2): 1% | inhibition at 10 µM (PDK1): 3% | inhibition at 10 µM (PLK1): -5% | inhibition at 10 µM (PAK2): -8% | inhibition at 10 µM (EphA3 kinase): 0% | inhibition at 10 µM (Akt1/PKBα): -13% | inhibition at 10 µM (KDR): -6% | inhibition at 10 µM (GSK3β): 0% | inhibition at 10 µM (TRKA): 0% | inhibition at 10 µM (NEK2): -23% | inhibition at 10 µM (EGFR kinase): 4% | inhibition at 10 µM (PDGFRα): 40% | inhibition at 10 µM (JNK1): 32% | inhibition at 10 µM (CHK1): -10% | inhibition at 10 µM (ROCK1): 2% | inhibition at 10 µM (c-KIT): -1% | inhibition at 10 µM (JAK3): -3% | inhibition at 10 µM (AurA/Aur2 kinase): -5% | inhibition at 10 µM (TAOK2): 33% | inhibition at 10 µM (RAF-1 kinase): 11% | inhibition at 10 µM (Src kinase): -4% | inhibition at 10 µM (Lck kinase): -14%
Compound: O=C(Nc1cc(Cl)ccc1O)c1cccc(S(=O)(=O)N2CCCCC2)c1 [compound 66, BDT001]
